Test system: U87 tumor
Assay: PET imaging and tissue biodistribution in U87 tumor-bearing mice
Assay type: in vivo, mouse
Parameters: Biodistribution: Saliv. Gland: unit not given here
Method: Cell uptake assays, flow cytometry, and IHC were performed as described previously. Banerjee et al., 2019; Nimmagadda et al., 2018. PET imaging and biodistribution Sequential PET imaging and biodistribution studies were conducted to quantify and validate PET imaging data. Briefly, tumor-bearing mice were administrated approximately 7.4 MBq of radiotracer in 150 μL saline via tail-vein injection. They were randomized into the indicated groups of 3-4 mice before radiotracer injection.
In Experiment 1, bilateral xenografts of U87 (right flank) and PSMA+ PC3 PIP (left flank) tumors were established in male NSG mice (n=3), which underwent imaging followed by biodistribution over 24 h. […] A biodistribution study was further conducted with U87 tumors at 2 h post-injection (n=3) to compare the tissue distribution properties of ^64Cu-FP-L1 and ^64Cu-FAPI-04.

[1] = untitled table, radiolabel and time not given
[2] = untitled table, radiolabel and time not given, in %ID/g
[3] = head-to-head, 1 h, dose 20 μCi, n=5/group (FAPI-04 n = 3)

Biodistribution: Saliv. Gland [1]	Biodistribution: Bladder [2]	Biodistribution: Blood [2]	Biodistribution: Bone [2]	Biodistribution: Fat [2]	Biodistribution: Heart [2]	Biodistribution: Kidney [2]	Biodistribution: Lacrim Gland [2]	Biodistribution: Liver [2]	Biodistribution: Lung [2]	Biodistribution: Muscle [2]	Biodistribution: Pancreas [2]	Biodistribution: Sm Intest [2]	Biodistribution: Spleen [2]	Biodistribution: Stomach [2]	Biodistribution: U87 [2]	Structure (SMILES)	other results
7.59 ± 3.44	7.14 ± 3.21	20.47 ± 8.29	4.47 ± 1.71	0.49 ± 0.23	7.16 ± 3.22	5.16 ± 2.02	4.32 ± 1.56	6.87 ± 2.54	10.70 ± 4.41	2.06 ± 0.95	10.62 ± 3.62	9.55 ± 3.91	4.21 ± 1.74	3.73 ± 1.63	5.67 ± 2.42	N#CC1CCCN1C(=O)CNC(=O)c1ccnc2ccc(OCCCNC(=O)CCc3cn(CC[C@H](NC(=O)c4ccc(F)nc4)C(=O)NCCNC(=O)CN4CCN(CC(=O)O)CCN(CC(=O)O)CCN(CC(=O)O)CC4)nn3)cc12 (stereo partly drawn) [SRI-07-56]	–
8.95 ± 0.98	1.67 ± 0.32	3.92 ± 0.39	5.97 ± 1.02	0.92 ± 0.21	1.97 ± 0.34	2.65 ± 0.27	8.01 ± 1.01	2.73 ± 0.64	2.90 ± 0.24	3.03 ± 0.63	7.33 ± 1.73	3.85 ± 0.77	1.59 ± 0.57	1.42 ± 0.56	20.41 ± 3.28	N#C[C@@H]1CCCN1C(=O)CNC(=O)c1ccnc2ccc(OCCCNC(=O)C(CCNC(=O)c3ccc(F)nc3)NC(=O)CN3CCN(CC(=O)O)CCN(CC(=O)O)CCN(CC(=O)O)CC3)cc12 (stereo partly drawn) [SRI-08-15]	–
7.49 ± 1.17	1.59 ± 0.32	15.40 ± 1.08	3.75 ± 0.43	0.56 ± 0.20	7.04 ± 0.93	5.47 ± 0.73	5.27 ± 1.52	6.13 ± 0.67	9.40 ± 1.61	1.94 ± 0.74	10.46 ± 2.88	8.20 ± 2.20	3.08 ± 0.27	2.17 ± 0.30	7.84 ± 1.95	N#CC1CCCN1C(=O)CNC(=O)c1ccnc2ccc(OCCCNC(=O)CCc3cn(CCCC[C@H](NC(=O)c4ccc(F)nc4)C(=O)NCCNC(=O)CN4CCN(CC(=O)O)CCN(CC(=O)O)CCN(CC(=O)O)CC4)nn3)cc12 (stereo partly drawn) [SRI-08-35]	–

More lines, now with the values behind:

Structure (SMILES)	Biodistribution: Saliv. Gland [1]	Biodistribution: Bladder [2]	Biodistribution: Blood [2]	Biodistribution: Bone [2]	Biodistribution: Fat [2]	Biodistribution: Heart [2]	Biodistribution: Kidney [2]	Biodistribution: Lacrim Gland [2]	Biodistribution: Liver [2]	Biodistribution: Lung [2]	Biodistribution: Muscle [2]	Biodistribution: Pancreas [2]	Biodistribution: Sm Intest [2]	Biodistribution: Spleen [2]	Biodistribution: Stomach [2]	Biodistribution: U87 [2]	other results
N#C[C@@H]1CCCN1C(=O)CNC(=O)c1ccnc2ccc(OCCCNC(=O)CCOCCOCCOCCNC(=O)C(CCNC(=O)c3ccc(F)nc3)NC(=O)CN3CCN(CC(=O)O)CCN(CC(=O)O)CCN(CC(=O)O)CC3)cc12 (stereo partly drawn) [SRI-08-27]	6.40 ± 1.30	1.18 ± 0.13	12.65 ± 2.31	2.83 ± 0.36	0.45 ± 0.16	5.39 ± 1.11	3.98 ± 0.66	4.62 ± 1.02	5.15 ± 0.75	7.76 ± 1.31	1.55 ± 0.43	7.20 ± 3.00	6.28 ± 2.63	2.59 ± 0.49	1.83 ± 0.66	6.56 ± 1.76	–
N#C[C@@H]1CCCN1C(=O)CNC(=O)c1ccnc2ccc(OCCCN3CC4CN(C(=O)C(CCNC(=O)c5ccc(F)nc5)NC(=O)CN5CCN(CC(=O)O)CCN(CC(=O)O)CCN(CC(=O)O)CC5)CC4C3)cc12 (stereo partly drawn) [SRI-08-37]	11.70 ± 1.32	4.28 ± 4.14	4.59 ± 0.50	6.37 ± 0.98	1.04 ± 0.55	2.24 ± 1.02	2.82 ± 0.06	9.11 ± 2.71	2.02 ± 0.13	2.96 ± 0.38	2.74 ± 0.18	6.76 ± 1.47	3.36 ± 0.76	1.45 ± 0.17	1.85 ± 0.19	20.43 ± 1.73	–
N#C[C@@H]1CCCN1C(=O)CNC(=O)c1ccnc2ccc(OCCCNC(=O)CCc3cn(CCCC[C@H](NC(=O)CN4CCN(CC(=O)O)CCN(CC(=O)O)CC4)C(=O)NCCCOc4ccc5nccc(C(=O)NCC(=O)N6CCC[C@H]6C#N)c5c4)nn3)cc12 [^64Cu-FAPI-74, metal not drawn, reference compound]	–	–	–	–	–	–	–	–	–	–	–	–	–	–	–	–	Biodistribution: Bladder [3]: 3.51 ± 0.30 % ID/g; Biodistribution: Blood [3]: 2.48 ± 0.87 % ID/g; Biodistribution: Bone [3]: 7.94 ± 0.78 % ID/g; Biodistribution: Fat [3]: 0.48 ± 0.43 % ID/g; Biodistribution: Heart [3]: 1.16 ± 0.28 % ID/g; Biodistribution: Kidney [3]: 3.83 ± 2.31 % ID/g; Biodistribution: Lacrimal gland [3]: 5.17 ± 1.51 % ID/g; Biodistribution: Liver [3]: 1.69 ± 0.83 % ID/g; Biodistribution: Lung [3]: 2.48 ± 0.64 % ID/g; Biodistribution: Muscle [3]: 2.05 ± 0.84 % ID/g; Biodistribution: Pancreas [3]: 2.09 ± 1.12 % ID/g; Biodistribution: Salivary Gland [3]: 4.42 ± 0.55 % ID/g; Biodistribution: Small Intestine [3]: 3.80 ± 2.06 % ID/g; Biodistribution: Spleen [3]: 1.23 ± 0.41 % ID/g; Biodistribution: Stomach [3]: 1.29 ± 0.45 % ID/g; Biodistribution: U87 [3]: 11.42 ± 1.11 % ID/g
